From patent US20230321043A1, “COMPOUNDS HAVING PSEUDOMONAS ANTI-BIOFILM PROPERTIES” (Københavns Universitet, priority 2020, published 2023)

Columns and labels:
[1] = test system: P. aeruginosa ΔbifAΔwspFΔpelΔpsl/pCdrA-gfp; test: c-di-GMP monitor read-out in bifA knockout; format: cell-based, Pseudomonas aeruginosa; settings: 100 μM, 18 hours of cultivation, FIG. 6B right
Protocol: This experiment was done using a 96 well microtiter format where 20 hour old cultures of the P. aeruginosa ΔwspFΔpelΔpsl/pCdrA-gfp c-di-GMP monitor strain and the P. aeruginosa ΔbifAΔwspFΔpelΔpsl/pCdrA-gfp c-di-GMP monitor strain were diluted 100 fold into 100 μL ABTrace media aliquots supplemented with 0.2% glucose, 0.5% casamino acids, 1 μM FeCl3, 60 μg/mL of gentamicin, 1% DMSO and either 100 μM or 0 μM of H6-335-P1. The resulting microtitter was incubated at 37° C. and 440 RPM in a Tecan reader, and corresponding values of GFP fluorescence (FU) and cell density (OD600) was measured every 20 minutes for 24 hours.

[2] = test system: P. aeruginosa biofilms on implants; test: P. aeruginosa-infected peritoneal implant model in mice; format: in vivo; settings: intraperitoneal
Protocol: Silicone implants (5 mm long, 6 mm OD×4 mm ID) were incubated with P. aeruginosa cultures (OD 0.1) for 20 hours to allow bacterial adhesion and subsequent coating. At time t=0, mice had the implants inserted in the peritoneal cavity and biofilm developed on the implants for 24 hours. (A) At 24 hours and 26 hours post-insertion of the implants (PI), the mice were treated with either H6-335-P1 (named “H6 P1” in FIG. 8) 25 μM (˜6 μg/g BW) in 0.2% cyclodextrin or 0.2% cyclodextrin, and at 26 hours PI with 30 μg per g BW tobramycin (TOB) or 0.9% NaCl. […] At 28 hours PI the mice were euthanized, and the bacterial contents as CFU per implant were determined. The median CFU per implant for the placebo group was set to 100. The median CFU per implant for the placebo groups were 8.5×10^6 (A) and 1.5×10^6 (B). Horizontal lines indicate median CFU for each group. Each symbol represents a mouse. Significance levels are based on Mann-Whitney U test (analysis of non-parametric data). IP administered doses: TOB: 30 mg/Kg BW, CIP: 10 mg/Kg BW, H6 P1: 2×6 mg/Kg BW.
The inventors first determined H6-335-P1 anti-biofilm efficacy in implant-harboring mice at low dosages (concentration) of 5 to 25 μM H6-335-P1 which corresponds to 1 to 5 μg H6-335-P1 per gram of body weight. […]

[3] = test system: P. aeruginosa biofilm on urinary tract catheters; test: catheter associated urinary tract infection model in mice; format: in vivo
Protocol: Silicone catheters (5 mm long, 0.64 mm OD×0.3 mm ID) incubated with P. aeruginosa cultures (OD 1) for 22 hours to allow bacterial adhesion and subsequent coating. Mice then had the catheters inserted in the bladder and biofilm developed on the catheters for 24 hours. […] At 48 hours post-insertion the mice were euthanized, and the bacterial contents as CFU per implant were determined. Two experiments were pooled, and the median CFU per implant for the placebo group was set to 100. Horizontal lines indicate median CFU for each group. Each symbol represents a mouse. IP administered doses: H6 P1: 2×13 mg/Kg BW, CIP: 2×1 mg/Kg BW.
Silicone catheters (5 mm long, 0.64 mm OD×0.3 mm ID) incubated with P. aeruginosa cultures (OD 1) for 22 hours to allow bacterial adhesion and subsequent coating. Mice then had the catheters inserted in the bladder and biofilm developed on the catheters for 24 hours. […] At 48 hours post-insertion the mice were euthanized, and the bacterial contents as CFU per implant were determined. The median CFU per catheter for the control groups were set to 100. The median CFU per catheter for the placebo groups were 3×10^5 and 7×10^4. Horizontal lines indicate median CFU for each group. Each symbol represents one mouse. Orally administered doses: 2×13 mg/Kg BW, 2×3.3 mg/Kg BW. […]

Pseudomonas flourescens = test: biofilm formation, crystal violet, host range; format: cell-based; settings: 100 μM, 8 hours, FIG. 11
Protocol: (§1) To determine the host range of H6-335-P1, the inventors conducted a Blast search for analogs of the P. aeruginosa BifA phosphodiesterase protein encoded by gene PA4367 (bifA).
(§2) Briefly, the experiment presented in FIG. 11 were carried out in 96 well microtiter plates as follows. 20 hours old cultures of either P. aeruginosa, P. putida or P. flourescens were diluted 1000 fold into 100 μL aliquots of ABtrace media supplemented with 0.5% Cas amino acids, 0.2% glucose, 1 μM FeCl3, 0.2% DMSO and either 100 μM H6-335-P1 or none H6-335-P1. The resulting microtiter plate were sealed with an air permeable lid and the cultures were incubated at 37° C. on rotary shaker at 160 RPM. Following 8 hours of growth the culture supernatants were discarded and the amount of biofilm present in each well were quantified by the use of crystal violet staining. Finally, the obtained values of crystal violet (biofilm material) were plotted as a function of strain and the presence of 100 μM H6-335-P1 or absence of H6-335-P1. In FIG. 11 means and standard deviations (bars) represents 4 biological replicates (n=4).

Pseudomonas putida = test: biofilm formation, crystal violet, host range; format: cell-based; settings: 100 μM, 8 hours, FIG. 11
Protocol: as §1, §2

N=C1NN=C(N)/C1=N/Nc1ccccc1F [H6-335-P1, 4-[(2-fluorophenyl) hydrazinylidene]pyrazole-3,5-diamine]
fluorescent read-out of ΔbifA c-di-GMP monitor strain [1]: completely unaffected
biofilm bacteria dispersed from the implant ([2]; 5 to 25 μM (1 to 5 μg per gram of body weight), four hours of exposure, not shown): up to 90%
CFU on implants, combinatorial treatment followed by tobramycin or ciprofloxacin ([2]; FIG. 8): synergistic antimicrobial (lethal) effects
number of bacteria on the catheters, intraperitoneal administration ([3]; given as H6-335-P1:HCl 2×13 mg/Kg BW IP, with or without ciprofloxacin, FIG. 10A): reduced the number of bacteria on the catheters
biofilm mass on the catheters, oral administration ([3]; given as H6-335-P1:HCl in Nutella, as low as […] (3.3 mg/Kg BW), FIG. 10B): significantly reduces the biofilm mass on the catheters
biofilm formation of Pseudomonas flourescens (Pseudomonas flourescens): significantly less biofilm
biofilm formation of Pseudomonas putida (Pseudomonas putida): significantly less biofilm
